Starred links: 1 amine or outer side, 2 acyl side, 3 side chain; linkers in the order of their positions; H or OH if unused. Positions of bridges follow the written chain, without caps; N, C: chain ends. Non-standard residues stand in square brackets, D forms with d. Residues, ends and D or L forms follow the SMILES beside them. *: point of attachment. hPhe(3-Cl-4-CF3) = N[C@@H](CCc1ccc(C(F)(F)F)c(Cl)c1)C(=O)O; hPhe(3-F,4-CF3) = N[C@@H](CCc1ccc(C(F)(F)F)c(F)c1)C(=O)O; NMePhe(4-CF3) = CN[C@@H](Cc1ccc(C(F)(F)F)cc1)C(=O)O; Pro(trans-4-Ph) = O=C(O)[C@@H]1C[C@@H](c2ccccc2)CN1; NMePhe(3-CN) = CN[C@@H](Cc1cccc(C#N)c1)C(=O)O; 3Oxa8azabicyclo(3.2.1)octane = C1CC2COCC1N2*; NMeAbu(4,4,4-F3) = CN[C@@H](CC(F)(F)F)C(=O)O; NMePhe(4-Cl) = CN[C@@H](Cc1ccc(Cl)cc1)C(=O)O; NMePhe(4-Me) = CN[C@@H](Cc1ccc(C)cc1)C(=O)O; NMePhe(2-Cl) = CN[C@@H](Cc1ccccc1Cl)C(=O)O; NMedβ3hAla = C[C@H](CC(=O)[*:2])N(C)[*:1]; NMeAla(cPent) = CN[C@@H](CC1CCCC1)C(=O)O; Phe(3-I) = N[C@@H](Cc1cccc(I)c1)C(=O)O; NMeAla(cPr) = CN[C@@H](CC1CC1)C(=O)O; NMe3Pal = CN[C@@H](Cc1cccnc1)C(=O)O; NMeCha = CN[C@@H](CC1CCCCC1)C(=O)O; NMeChg = CN[C@H](C(=O)O)C1CCCCC1; NMeI = CC[C@H](C)[C@H](NC)C(=O)O; Gly(cBu) = N[C@H](C(=O)O)C1CCC1; NMeD = CN[C@@H](CC(=O)O)C(=O)O; AllylGly = C=CC[C@H](N)C(=O)O; NMeL = CN[C@@H](CC(C)C)C(=O)O; NMeV = CN[C@H](C(=O)O)C(C)C; d(β3hA) = C[C@@H](N)CC(=O)O; dIva = CC[C@@](C)(N)C(=O)O; NMeA = CN[C@@H](C)C(=O)O; Nle = CCCC[C@H](N)C(=O)O; Piperidide = C1CCN(*)CC1; Ac5c = NC1(C(=O)O)CCCC1; Aze = O=C(O)[C@@H]1CCN1; Sar = CNCC(=O)O
Legend:
[1] = target: T1, Kras and SOS1 (biotin-tagged human Kras loaded with GDP, His-tagged human SOS1) (Homo sapiens, UniProt P01116, G12D); test: Protein-protein interaction inhibition between Kras and SOS1 (KrasGl2D-SOS PPI) using AlphaScreen; type: binding; details: AlphaScreen; biotin-tagged human Kras loaded with GDP, His-tagged human SOS1; read-out: KRAS G12D-SOS PPI IC50
T1 construct: made in house; host or cells: E. coli (stated for Kras only)
Method in brief: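 Donor beads (nickel) hold His-SOS1; acceptor beads (streptavidin) hold biotin-Kras bound to GDP. Signal measured at 520-620 nm following 680 nm excitation.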

[2] = system: Human pancreatic cancer cell line AsPC-1; test: Measurement of AsPC-1 cell growth inhibition (AsPC-1 CGI); type: cell-based; details: 96 h
Method in brief: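 AsPC-1 cells in 15% FBS RPMI-1640 were exposed to test compound for 96 hours at 37° C, with CellTiter-Glo as endpoint.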

T1 sequence (P01116 1-188 isoform P01116-2 G12D): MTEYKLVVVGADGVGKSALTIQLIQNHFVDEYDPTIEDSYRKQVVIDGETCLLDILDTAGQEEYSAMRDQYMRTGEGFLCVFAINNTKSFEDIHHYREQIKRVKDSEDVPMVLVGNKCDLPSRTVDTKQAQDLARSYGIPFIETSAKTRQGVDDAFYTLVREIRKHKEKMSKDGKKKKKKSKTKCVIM

SMILES	IC50 [1] [nM]	IC50 [2] [nM]
CC[C@H](C)[C@@H]1NC(=O)[C@H](CC(C)C)N(C)C(=O)C[C@@H](C(=O)N2CCCCC2)N(C)C(=O)[C@H](C2CCCCC2)N(C)C(=O)C2(CCCC2)NC(=O)[C@@H]2C[C@@H](c3ccccc3)CN2C(=O)[C@H](CCc2ccc(C(F)(F)F)c(Cl)c2)NC(=O)CN(C)C(=O)[C@H](CC2CCCCC2)N(C)C(=O)[C@@H]2CCN2C(=O)CN(C)C1=O [Compound 147] ([NMeL]I[Sar][Aze][NMeCha][Sar][hPhe(3-Cl-4-CF3)][Pro(trans-4-Ph)][Ac5c][NMeChg][NMeD]-Piperidide; lactam N-11)	6.7	100 to 500
C=CC[C@@H]1NC(=O)[C@H](CC(C)C)N(C)C(=O)C[C@@H](C(=O)N2CCCCC2)N(C)C(=O)[C@H](C2CCCCC2)N(C)C(=O)C2(CCCC2)NC(=O)[C@@H]2CCCN2C(=O)[C@H](CCc2ccc(C(F)(F)F)c(Cl)c2)NC(=O)CN(C)C(=O)[C@H](CC2CCCCC2)N(C)C(=O)CN(C)C(=O)CN(C)C1=O [Compound 164] ([NMeL][AllylGly][Sar][Sar][NMeCha][Sar][hPhe(3-Cl-4-CF3)]P[Ac5c][NMeChg][NMeD]-Piperidide; lactam N-11)	2.2	100 to 500
CCCC[C@@H]1NC(=O)[C@H](Cc2cccc(I)c2)NC(=O)CN(C)C(=O)[C@H](Cc2ccc(Cl)cc2)N(C)C(=O)CN(C)C(=O)CN(C)C(=O)[C@H]([C@@H](C)CC)NC(=O)[C@H](CC(C)C)N(C)C(=O)C[C@@H](C(=O)N2CCCCC2)N(C)C(=O)[C@H](CC(C)C)NC(=O)[C@H](Cc2ccccc2Cl)N(C)C1=O [Compound 168] ([NMeL]I[Sar][Sar][NMePhe(4-Cl)][Sar][Phe(3-I)][Nle][NMePhe(2-Cl)]L[NMeD]-Piperidide; lactam N-11)	29	100 to 500
CC[C@H](C)[C@@H]1NC(=O)[C@H](CC(F)(F)F)N(C)C(=O)C[C@@H](C(=O)N2C3CCC2COC3)N(C)C(=O)[C@H](C2CCCCC2)N(C)C(=O)C2(CCCC2)NC(=O)[C@@H]2CCCN2C(=O)[C@H](CCc2ccc(C(F)(F)F)c(Cl)c2)NC(=O)CN(C)C(=O)[C@H](Cc2ccc(C(F)(F)F)cc2)N(C)C(=O)CN(C)C(=O)CN(C)C1=O [Compound 173] ([NMeAbu(4,4,4-F3)]I[Sar][Sar][NMePhe(4-CF3)][Sar][hPhe(3-Cl-4-CF3)]P[Ac5c][NMeChg][NMeD]-{3Oxa8azabicyclo(3.2.1)octane}; lactam N-11)	0.56	20 to 50
CC[C@H](C)[C@@H]1NC(=O)[C@H](CC(C)C)N(C)C(=O)C[C@@H](C)NC(=O)[C@H](C(C)C)N(C)C(=O)C2(CCCC2)NC(=O)[C@@H]2CCCN2C(=O)[C@H](CCc2ccc(C(F)(F)F)c(F)c2)NC(=O)CN(C)C(=O)[C@H](CC2CCCCC2)N(C)C(=O)[C@@H]2CCN2C(=O)CN(C)C1=O [Compound 211] (cyclo([Ac5c][NMeV][d(β3hA)][NMeL]I[Sar][Aze][NMeCha][Sar][hPhe(3-F,4-CF3)]P))	43	100 to 500
CC[C@H](C)[C@@H]1NC(=O)[C@H](CC(C)C)N(C)C(=O)C[C@@H](C(=O)N(C)C)N(C)C(=O)[C@H]([C@@H](C)CC)N(C)C(=O)C2(CCCC2)NC(=O)[C@H](Cc2ccccc2Cl)N(C)C(=O)[C@H](CCc2ccc(C(F)(F)F)c(Cl)c2)NC(=O)CN(C)C(=O)[C@H](Cc2ccc(C)cc2)N(C)C(=O)[C@@H]2CCN2C(=O)[C@H](C)N(C)C1=O [Compound 216] ([NMeL]I[NMeA][Aze][NMePhe(4-Me)][Sar][hPhe(3-Cl-4-CF3)][NMePhe(2-Cl)][Ac5c][NMeI][NMeD]-NMe2; lactam N-11)	8	100 to 500
CC[C@H](C)[C@@H]1NC(=O)[C@H](CC(C)C)N(C)C(=O)C[C@@H](C(=O)N2CCCCC2)N(C)C(=O)[C@H](C(C)C)N(C)C(=O)C2(CCCC2)NC(=O)[C@@H]2CCCN2C(=O)[C@H](CCc2ccc(C(F)(F)F)c(Cl)c2)NC(=O)CN(C)C(=O)[C@H](CC2CCCC2)N(C)C(=O)CN(C)C(=O)CN(C)C1=O [Compound 220] ([NMeL]I[Sar][Sar][NMeAla(cPent)][Sar][hPhe(3-Cl-4-CF3)]P[Ac5c][NMeV][NMeD]-Piperidide; lactam N-11)	3.1	100 to 500
CC(C)C[C@H]1C(=O)N[C@@H](C2CCC2)C(=O)N(C)CC(=O)N(C)CC(=O)N(C)[C@@H](CC2CCCCC2)C(=O)N(C)CC(=O)N[C@@H](CCc2ccc(C(F)(F)F)c(Cl)c2)C(=O)N2CCC[C@H]2C(=O)NC2(CCCC2)C(=O)N(C)[C@@H](C(C)C)C(=O)N(C)[C@H](C(=O)N2CCCCC2)CC(=O)N1C [Compound 221] ([NMeL][Gly(cBu)][Sar][Sar][NMeCha][Sar][hPhe(3-Cl-4-CF3)]P[Ac5c][NMeV][NMeD]-Piperidide; lactam N-11)	2.8	100 to 500
CC[C@H](C)[C@@H]1NC(=O)[C@H](CC(C)C)N(C)C(=O)C[C@@H](C)N(C)C(=O)[C@H](C(C)C)N(C)C(=O)[C@@](C)(CC)NC(=O)[C@@H]2CCCN2C(=O)[C@H](CCc2ccc(C(F)(F)F)c(Cl)c2)NC(=O)CN(C)C(=O)[C@H](CC2CCCCC2)N(C)C(=O)CN(C)C(=O)CN(C)C1=O [Compound 223] (cyclo(I[Sar][Sar][NMeCha][Sar][hPhe(3-Cl-4-CF3)]P[dIva][NMeV][NMedβ3hAla][NMeL]))	18	100 to 500
CC[C@H](C)[C@@H]1NC(=O)[C@H](CC(C)C)N(C)C(=O)C[C@@H](C(=O)N2CCCCC2)N(C)C(=O)[C@H](C(C)C)N(C)C(=O)C2(CCCC2)NC(=O)[C@@H]2CCCN2C(=O)[C@H](CCc2ccc(C(F)(F)F)c(F)c2)NC(=O)CN(C)C(=O)[C@H](Cc2ccc(Cl)cc2)N(C)C(=O)CN(C)C(=O)CN(C)C1=O [Compound 229] ([NMeL]I[Sar][Sar][NMePhe(4-Cl)][Sar][hPhe(3-F,4-CF3)]P[Ac5c][NMeV][NMeD]-Piperidide; lactam N-11)	6.7	100 to 500
CC[C@H](C)[C@@H]1NC(=O)[C@H](CC(C)C)N(C)C(=O)C[C@@H](C(=O)N2CCCCC2)N(C)C(=O)[C@H](C2CCCCC2)N(C)C(=O)C2(CCCC2)NC(=O)[C@@H]2CCCN2C(=O)[C@H](CCc2ccc(C(F)(F)F)c(Cl)c2)NC(=O)CN(C)C(=O)[C@H](CC2CC2)N(C)C(=O)CN(C)C(=O)CN(C)C1=O [Compound 234] ([NMeL]I[Sar][Sar][NMeAla(cPr)][Sar][hPhe(3-Cl-4-CF3)]P[Ac5c][NMeChg][NMeD]-Piperidide; lactam N-11)	2.1	> 500
CC[C@H](C)[C@@H]1NC(=O)[C@H](CC(C)C)N(C)C(=O)C[C@@H](C)N(C)C(=O)[C@H](C(C)C)N(C)C(=O)C2(CCCC2)NC(=O)[C@@H]2CCCN2C(=O)[C@H](CCc2ccc(C(F)(F)F)c(Cl)c2)NC(=O)CN(C)C(=O)[C@H](Cc2cccc(C#N)c2)N(C)C(=O)CN(C)C(=O)CN(C)C1=O [Compound 238] (cyclo([Ac5c][NMeV][NMedβ3hAla][NMeL]I[Sar][Sar][NMePhe(3-CN)][Sar][hPhe(3-Cl-4-CF3)]P))	12	100 to 500
CC[C@H](C)[C@@H]1NC(=O)[C@H](CC(C)C)N(C)C(=O)C[C@@H](C(=O)N(C)C)N(C)C(=O)[C@H]([C@@H](C)CC)N(C)C(=O)C2(CCCC2)NC(=O)[C@H](Cc2cccnc2)N(C)C(=O)[C@H](CCc2ccc(C(F)(F)F)c(Cl)c2)NC(=O)CN(C)C(=O)[C@H](Cc2ccc(C)cc2)N(C)C(=O)[C@@H]2CCN2C(=O)[C@H](C)N(C)C1=O [Compound 243] ([NMeL]I[NMeA][Aze][NMePhe(4-Me)][Sar][hPhe(3-Cl-4-CF3)][NMe3Pal][Ac5c][NMeI][NMeD]-NMe2; lactam N-11)	0.43	20 to 50
